Laboratory results from US9113629B2, “4-amino-6-(4-substituted-phenyl)-picolinates and 6-amino-2-(4-substituted-phenyl)-pyrimidine-4-carboxylates and their use as herbicides” (DOW AGROSCIENCES LLC, priority 2013, dated 2015).
Read-outs that look alike come from different tables or passages of the source.

Columns and labels:
[1] = tested on: Key Grass and Sedge Weeds as well as Grass Crops; assay: Post-emergent Test II herbicidal activity (Table 6); format: in vivo; details: post-emergence, 336 h; for pest or weed control at 70 g/ha: application rate 70 g ai/ha; for pest or weed control at 140 g/ha: application rate 140 g ai/ha
In short: (§1)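 Test species were raised 7–21 d under greenhouse conditions until reaching the first or second true leaf, sprayed with formulated compound at 187 L/ha, and kept subirrigated to avoid wash-off. Fourteen days later, damage was rated visually on a 0–100% scale against untreated plants.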

[2] = tested on: Key Broadleaf Weed and Crop Species; assay: Post-emergent Test II herbicidal activity (Table 5); format: in vivo; details: post-emergence, 336 h, 14 days after application
In short: as §1

[3] = CYPES: yellow nutsedge (Cyperus esculentus), read-out: Visual Growth Reduction (%) 14 Days After Application, CYPES
[4] = DIGSA: crabgrass (Digitaria sanguinalis), read-out: Visual Growth Reduction (%) 14 Days After Application, DIGSA
[5] = ECHCG: barnyardgrass (Echinochloa crus-galli), read-out: Visual Growth Reduction (%) 14 Days After Application, ECHCG
[6] = ORYSA: rice (Oryza sativa), read-out: Visual Growth Reduction (%) 14 Days After Application, ORYSA
[7] = SETFA: giant foxtail (Setaria faberi), read-out: Visual Growth Reduction (%) 14 Days After Application, SETFA
[8] = SORVU: grain sorghum (Sorghum vulgare), read-out: Visual Growth Reduction (%) 14 Days After Application, SORVU
[9] = TRZSS (wheat, Triticum aestivum), read-out: Visual Growth Reduction (%) 14 Days After Application, TRZSS
[10] = ZEAMX: maize, corn (Zea mays), read-out: Visual Growth Reduction (%) 14 Days After Application, ZEAMX
[11] = Triticum aestivum, TRZSS (wheat), read-out: Visual Growth Reduction (%) 14 Days After Application, TRZSS

C=Cc1c(N)nc(-c2ccc(I)cc2)nc1C(=O)O [Compound 123, 6-Amino-2-(4-iodophenyl)-5-vinylpyrimidine-4-carboxylic acid]
30 to 44%: pest or weed control at 70 g/ha [1, 8] | pest or weed control at 140 g/ha [1, 8]
60 to 74%: pest or weed control at 140 g/ha [1, 10] | pest or weed control at 140 g/ha ([2]; BRSNN: oilseed-rape, canola (Brassica napus), 140 g ai/ha, post-emergent, read-out: Visual Growth Reduction (%) 14 Days After Application BRSNN)
45 to 59%: pest or weed control at 140 g/ha [1, 3] | pest or weed control at 70 g/ha [1, 10] | pest or weed control at 140 g/ha ([2]; VIOTR: wild pansy (Viola tricolor), 140 g ai/ha, post-emergent, read-out: Visual Growth Reduction (%) 14 Days After Application VIOTR)
187 to 190 °C: melting point
95 to 100%: pest or weed control at 70 g/ha ([2]; AMARE: redroot pigweed (Amaranthus retroflexus), 70 g ai/ha, post-emergent, read-out: Visual Growth Reduction (%) 14 Days After Application AMARE) | pest or weed control at 140 g/ha ([2]; AMARE: redroot pigweed (Amaranthus retroflexus), 140 g ai/ha, post-emergent, read-out: Visual Growth Reduction (%) 14 Days After Application AMARE) | pest or weed control at 70 g/ha ([2]; EPHHL: wild poinsettia (Euphorbia heterophylla), 70 g ai/ha, post-emergent, read-out: Visual Growth Reduction (%) 14 Days After Application EPHHL) | pest or weed control at 140 g/ha ([2]; EPHHL: wild poinsettia (Euphorbia heterophylla), 140 g ai/ha, post-emergent, read-out: Visual Growth Reduction (%) 14 Days After Application EPHHL)
0 to 29%: pest or weed control at 70 g/ha [1, 3] | pest or weed control at 70 g/ha [1, 4] | pest or weed control at 140 g/ha [1, 4] | pest or weed control at 70 g/ha [1, 6] | pest or weed control at 140 g/ha [1, 6] | pest or weed control at 70 g/ha [1, 7] | pest or weed control at 140 g/ha [1, 7] | pest or weed control at 70 g/ha [1, 9] | pest or weed control at 140 g/ha [1, 9] | pest or weed control at 70 g/ha ([2]; ABUTH: velvetleaf (Abutilon theophrasti), 70 g ai/ha, post-emergent, read-out: Visual Growth Reduction (%) 14 Days After Application ABUTH) | pest or weed control at 140 g/ha ([2]; ABUTH: velvetleaf (Abutilon theophrasti), 140 g ai/ha, post-emergent, read-out: Visual Growth Reduction (%) 14 Days After Application ABUTH) | pest or weed control at 70 g/ha ([2]; BRSNN: oilseed-rape, canola (Brassica napus), 70 g ai/ha, post-emergent, read-out: Visual Growth Reduction (%) 14 Days After Application BRSNN) | pest or weed control at 70 g/ha ([2]; CHEAL: lambsquarters (Chenopodium album), 70 g ai/ha, post-emergent, read-out: Visual Growth Reduction (%) 14 Days After Application CHEAL) | pest or weed control at 140 g/ha ([2]; CHEAL: lambsquarters (Chenopodium album), 140 g ai/ha, post-emergent, read-out: Visual Growth Reduction (%) 14 Days After Application CHEAL) | pest or weed control at 70 g/ha ([2]; VIOTR: wild pansy (Viola tricolor), 70 g ai/ha, post-emergent, read-out: Visual Growth Reduction (%) 14 Days After Application VIOTR)
85 to 94%: pest or weed control at 140 g/ha [1, 5]
75 to 84%: pest or weed control at 70 g/ha [1, 5] | pest or weed control at 70 g/ha ([2]; HELAN: sunflower (Helianthus annuus), 70 g ai/ha, post-emergent, read-out: Visual Growth Reduction (%) 14 Days After Application HELAN) | pest or weed control at 140 g/ha ([2]; HELAN: sunflower (Helianthus annuus), 140 g ai/ha, post-emergent, read-out: Visual Growth Reduction (%) 14 Days After Application HELAN)

COC(=O)c1nc(-c2ccc(I)c(F)c2F)cc(N)c1Cl [Compound 129, Methyl 4-amino-3-chloro-6-(2,3-difluoro-4-iodophenyl)picolinate]
45 to 59%: pest or weed control at 70 g/ha [1, 11] | pest or weed control at 140 g/ha [1, 11]
0 to 29%: pest or weed control at 70 g/ha [1, 6] | pest or weed control at 140 g/ha [1, 6]
172 to 174 °C: melting point
75 to 84%: pest or weed control at 70 g/ha [1, 5] | pest or weed control at 140 g/ha [1, 5] | pest or weed control at 140 g/ha [1, 10] | pest or weed control at 70 g/ha ([2]; HELAN: sunflower (Helianthus annuus), application rate 70 g ai/ha, read-out: Visual Growth Reduction (%) 14 Days After Application, HELAN)
60 to 74%: pest or weed control at 70 g/ha [1, 4] | pest or weed control at 140 g/ha [1, 4] | pest or weed control at 70 g/ha [1, 10]
85 to 94%: pest or weed control at 70 g/ha ([2]; BRSNN: oilseed-rape, canola (Brassica napus), application rate 70 g ai/ha, read-out: Visual Growth Reduction (%) 14 Days After Application, BRSNN) | pest or weed control at 140 g/ha ([2]; HELAN: sunflower (Helianthus annuus), application rate 140 g ai/ha, read-out: Visual Growth Reduction (%) 14 Days After Application, HELAN)
95 to 100%: pest or weed control at 70 g/ha [1, 3] | pest or weed control at 70 g/ha [1, 8] | pest or weed control at 140 g/ha [1, 8] | pest or weed control at 70 g/ha ([2]; ABUTH: velvetleaf (Abutilon theophrasti), application rate 70 g ai/ha, read-out: Visual Growth Reduction (%) 14 Days After Application, ABUTH) | pest or weed control at 140 g/ha ([2]; ABUTH: velvetleaf (Abutilon theophrasti), application rate 140 g ai/ha, read-out: Visual Growth Reduction (%) 14 Days After Application, ABUTH) | pest or weed control at 70 g/ha ([2]; AMARE: redroot pigweed (Amaranthus retroflexus), application rate 70 g ai/ha, read-out: Visual Growth Reduction (%) 14 Days After Application, AMARE) | pest or weed control at 140 g/ha ([2]; AMARE: redroot pigweed (Amaranthus retroflexus), application rate 140 g ai/ha, read-out: Visual Growth Reduction (%) 14 Days After Application, AMARE) | pest or weed control at 140 g/ha ([2]; BRSNN: oilseed-rape, canola (Brassica napus), application rate 140 g ai/ha, read-out: Visual Growth Reduction (%) 14 Days After Application, BRSNN) | pest or weed control at 70 g/ha ([2]; CHEAL: lambsquarters (Chenopodium album), application rate 70 g ai/ha, read-out: Visual Growth Reduction (%) 14 Days After Application, CHEAL) | pest or weed control at 140 g/ha ([2]; CHEAL: lambsquarters (Chenopodium album), application rate 140 g ai/ha, read-out: Visual Growth Reduction (%) 14 Days After Application, CHEAL) | pest or weed control at 70 g/ha ([2]; EPHHL: wild poinsettia (Euphorbia heterophylla), application rate 70 g ai/ha, read-out: Visual Growth Reduction (%) 14 Days After Application, EPHHL) | pest or weed control at 140 g/ha ([2]; EPHHL: wild poinsettia (Euphorbia heterophylla), application rate 140 g ai/ha, read-out: Visual Growth Reduction (%) 14 Days After Application, EPHHL) | pest or weed control at 70 g/ha ([2]; VIOTR: wild pansy (Viola tricolor), application rate 70 g ai/ha, read-out: Visual Growth Reduction (%) 14 Days After Application, VIOTR) | pest or weed control at 140 g/ha ([2]; VIOTR: wild pansy (Viola tricolor), application rate 140 g ai/ha, read-out: Visual Growth Reduction (%) 14 Days After Application, VIOTR)
